# Results published in patent US12673055B2, “Treatment of atopic dermatitis with tradipitant” (Vanda Pharmaceuticals Inc., priority 2020, dated 2026).
# System: atopic dermatitis (AD) patients with severe pruritus
# Assay: EPIONE randomized, placebo-controlled phase III study
# Format: in vivo, human
# Parameters: key to WI-NRS Adjusting for IGA Severity / WI-NRS (change) / Diary WI-NRS: change from baseline in WI-NRS itch score
# Description: A randomized, placebo-controlled phase III study is conducted in atopic dermatitis (AD) patients with severe pruritus with a range of disease severity presentation from mild (23%) to moderate (64%) and severe (13%) as determined by the Investigator's Global Assessment scale (IGA). In the study, patients (n=341) are randomized 1:1 to receive either tradipitant or placebo for a treatment period of eight (8) weeks. Patients in the tradipitant arm of the study are dosed with 85 mg tradipitant twice daily (bid). Patients are assessed at baseline and post-randomization with a number of symptomatic and disease severity scales at regular intervals.
# A significant interaction is observed between baseline disease severity and treatment (p=0.0004), where disease severity is measured by Investigator's Global Assessment (IGA) on a scale of 1-4.
# Similar effects are seen throughout the treatment periods at all post-randomization visits comprising weeks 2, 4, 6 and 8 (Table 1).
# [1] = mild AD (n = 79), 85 mg bid, Week 8
smiles,measurement,setting,value
O=C(c1ccccc1Cl)c1cccnc1-c1nnn(Cc2cc(C(F)(F)F)cc(C(F)(F)F)c2)c1-c1ccncc1 [Tradipitant],WI-NRS (change),"IGA 1, 2 (mild AD, n = 79), Tradipitant n = 40, 85 mg bid, Week 2",−2.59
same,WI-NRS (change),"IGA 1, 2 (mild AD, n = 79), Tradipitant n = 40, 85 mg bid, Week 4",−3.39
same,WI-NRS (change),"IGA 1, 2 (mild AD, n = 79), Tradipitant n = 40, 85 mg bid, Week 6",−4.18
same,WI-NRS (change),"IGA 1, 2 (mild AD, n = 79), Tradipitant n = 40, 85 mg bid, Week 8",−4.74
same,Diary WI-NRS,"IGA 1, 2 (n = 79), 85 mg bid, Week 2",−1.54
same,Diary WI-NRS,"IGA 1, 2 (n = 79), 85 mg bid, Week 4",−2.78
same,Diary WI-NRS,"IGA 1, 2 (n = 79), 85 mg bid, Week 6",−3.48
same,Diary WI-NRS,"IGA 1, 2 (n = 79), 85 mg bid, Week 8",−4.23
same,Diary WI-NRS Diff (tradipitant vs placebo),"IGA 1, 2 (n = 79), Week 2",1.18
same,WI-NRS Diff (tradipitant vs placebo),"IGA 1, 2 (n = 79), Week 2",1.61
same,Diary WI-NRS Diff (tradipitant vs placebo),"IGA 1, 2 (n = 79), Week 4",1.71
same,WI-NRS Diff (tradipitant vs placebo),"IGA 1, 2 (n = 79), Week 4",1.92
same,Diary WI-NRS Diff (tradipitant vs placebo),"IGA 1, 2 (n = 79), Week 6",1.76
same,WI-NRS Diff (tradipitant vs placebo),"IGA 1, 2 (n = 79), Week 6",1.86
same,Diary WI-NRS Diff (tradipitant vs placebo),"IGA 1, 2 (n = 79), Week 8",2.09
same,WI-NRS Diff (tradipitant vs placebo),"IGA 1, 2 (n = 79), Week 8",1.60
same,WI-NRS Adjusting for IGA Severity,"ITT (n = 341), 85 mg bid, Week 2",−2.43
same,WI-NRS Adjusting for IGA Severity,"ITT (n = 341), 85 mg bid, Week 4",−3.34
same,WI-NRS Adjusting for IGA Severity,"ITT (n = 341), 85 mg bid, Week 6",−3.75
same,WI-NRS Adjusting for IGA Severity,"ITT (n = 341), 85 mg bid, Week 8",−4.36
same,WI-NRS (change),"ITT (n = 341), Tradipitant n = 171, 85 mg bid, Week 2",−1.68
same,WI-NRS (change),"ITT (n = 341), Tradipitant n = 171, 85 mg bid, Week 4",−2.58
same,WI-NRS (change),"ITT (n = 341), Tradipitant n = 171, 85 mg bid, Week 6",−3.00
same,WI-NRS (change),"ITT (n = 341), Tradipitant n = 171, 85 mg bid, Week 8",−3.61
same,"WI-NRS Adjusting for IGA Severity, Diff (tradipitant vs placebo)","ITT (n = 341), Week 2",1.14
same,WI-NRS Diff (tradipitant vs placebo),"ITT (n = 341), Week 2",0.23
same,"WI-NRS Adjusting for IGA Severity, Diff (tradipitant vs placebo)","ITT (n = 341), Week 4",1.29
same,WI-NRS Diff (tradipitant vs placebo),"ITT (n = 341), Week 4",0.39
same,"WI-NRS Adjusting for IGA Severity, Diff (tradipitant vs placebo)","ITT (n = 341), Week 6",1.01
same,WI-NRS Diff (tradipitant vs placebo),"ITT (n = 341), Week 6",0.11
same,"WI-NRS Adjusting for IGA Severity, Diff (tradipitant vs placebo)","ITT (n = 341), Week 8",1.08
same,WI-NRS Diff (tradipitant vs placebo),"ITT (n = 341), Week 8",0.18
same,magnitude of improvement in pruritus (WI-NRS) compared with placebo,"full population, week 8, difference not statistically significant",greater than that of placebo
same,"improvement in WI-NRS compared to placebo, accounting for baseline disease severity and treatment interaction","full trial population, week 8, p=0.0217",significantly larger improvement
same,safety profile,in vivo,relatively safe profile
same,WI-NRS over placebo in the mild AD group,"mild AD (IGA 1, 2), every visit",significantly improves WI-NRS over placebo at every visit
same,Responder Analysis: IGA 0 or 1,[1],60.0%
same,Responder Analysis: SCORAD 50% Improvement,[1],55.0%
same,"Responder Analysis: IGA 0 or 1, Diff (tradipitant vs placebo)","mild AD (n = 79), Week 8",21.5%
same,"Responder Analysis: SCORAD 50% Improvement, Diff (tradipitant vs placebo)","mild AD (n = 79), Week 8",24.2%
same,"Responder Analysis: WI-NRS ≥4 Improvement, Diff (tradipitant vs placebo)","mild AD (n = 79), Week 8",39.2%
same,time course of response: onset of antipruritic effect,"mild AD patients, daily diary",immediately after the first full day of tradipitant dosing
same,Responder Analysis: WI-NRS ≥4 Improvement,"mild AD, IGA 1, 2 (n = 79), 85 mg bid, Week 8",72.5%
